Laboratory results: publication PMC2680243 (Cancer research, 2008)

Molecular target: T1, Cdc25A (Homo sapiens, UniProt P30304)
T1 sequence (P30304 1-524): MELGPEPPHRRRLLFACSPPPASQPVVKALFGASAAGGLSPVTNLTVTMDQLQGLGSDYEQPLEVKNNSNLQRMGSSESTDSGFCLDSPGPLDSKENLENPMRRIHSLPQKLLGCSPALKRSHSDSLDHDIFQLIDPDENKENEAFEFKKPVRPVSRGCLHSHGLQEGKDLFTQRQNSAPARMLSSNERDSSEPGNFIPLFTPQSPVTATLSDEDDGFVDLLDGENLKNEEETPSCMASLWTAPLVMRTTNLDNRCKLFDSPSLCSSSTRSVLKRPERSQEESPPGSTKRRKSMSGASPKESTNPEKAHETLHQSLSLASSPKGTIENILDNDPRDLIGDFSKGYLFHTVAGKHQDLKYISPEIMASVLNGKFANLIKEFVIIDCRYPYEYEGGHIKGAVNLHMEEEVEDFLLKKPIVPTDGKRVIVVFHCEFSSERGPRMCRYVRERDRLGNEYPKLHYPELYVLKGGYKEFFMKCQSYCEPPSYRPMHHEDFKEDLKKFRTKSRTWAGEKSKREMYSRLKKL
Test: OMFP phosphatase assay, […] min pretreatment
Assay type: biochemical

For `CCOC(=O)[C@@H](N)CSN=O` [SNCEE, S-nitrosocysteine ethyl ester], the IC50 was 22.5 ± 6.2 µM.
